The record followed here is patent publication US4598068A, “Benzylphenyl osides, method of preparation and use therefor” (Societe de Recheres Industrielles, priority 1983, dated 1986).

Data set [1] in a line: Acute toxicity, intraperitoneal administration to mice. The class given is in vivo. The conditions noted are these: mouse, in vivo, ip, read-out: LD50 (lethal dose causing the death of half of the animals). The source says:
(§1) The acute toxicity was studied by intraperitoneal administration to mice. It is expressed in the form of LD50 (lethal dose causing the death of half of the animals) or LD0 (maximum non-lethal dose).

Data set [2] deals with cholesterol level in the plasma. Nature of the data set: Hypocholesterolemic activity: plasma cholesterol level in rats. The class given is in vivo, male Wistar rats. The note with it: Rattus norvegicus, po, T=0 to T=+24 hours, not corrected for the variation in the control group, read-out: % Variation in the cholesterol level, variation in the subject treated; for change in vivo at 100 mg/kg: 100 mg/kg p.o. at T=0 and T=+7 hours; for change in vivo at 65 mg/kg: 65 mg/kg p.o. at T=0 and T=+7 hours. As to the method: Hypocholesterolemic activity
The hypocholesterolemic activity was studied on male Wistar rats (weighing about 200 to 220 g). Groups of 10 rats per product and per dose are fasted the day before the experiment. The products to be tested are administered in gum water (30 g/liter of gum arabic) at times T=0 and T=+7 hours. The cholesterol level in the plasma is measured at times T=0 and T=+24 hours and the percentage variation between T=0 and T=+24 hours is then calculated for the treated groups and the control groups.

A short description of data set [3]: Antithrombotic effects (statement only). The note with it: in words.
The subject of another data set is mice. Nature of the data set: Acute toxicity, intraperitoneal administration to mice. Format: in vivo. The conditions noted are these: i.p.
Text: as §1

Broadly, the LD50 is the dose at which mortality reaches 50%.

A value given as a limit tells only on which side of the number the result lay.

With `O[C@@H]1[C@@H](O)[C@H](Oc2ccc(Cc3ccc(Cl)cc3Cl)cc2)OC[C@H]1O` [Example 26], the median lethal dose (LD50) in data set [1] was 640 mg/kg. For the same compound, in data set [2], the change in vivo at 100 mg/kg was -8%.
In the case of `Cc1cc(Cc2ccccc2)ccc1O[C@@H]1OC[C@@H](O)[C@H](O)[C@H]1O` [Example 79], the LD50 in data set [1] came to 320 mg/kg. In addition, in data set [2] (30 mg/kg p.o. at T=0 and T=+7 hours), the change in vivo at 30 mg/kg was -37%.
With `O=[N+]([O-])c1ccc(Cc2ccc(O[C@@H]3OC[C@@H](O)[C@H](O)[C@H]3O)cc2)cc1` [Example 1, 4-(4-nitrobenzyl)phenyl β-D-xylopyranoside], in data set [1], the LD50 was 650 mg/kg. The change in vivo at 65 mg/kg in data set [2] was -39%. Moreover, in data set [3], the antithrombotic effects result is “beneficial antithrombotic effects”.
For `O[C@@H]1[C@@H](O)[C@H](Oc2ccc(Cc3ccccc3)cc2)OC[C@H]1O` [Example 33, 4-(benzyl)phenyl β-D-xylopyranoside], in the data set with mice, the “LD0 (maximum non-lethal dose)” value is recorded as greater than 800 mg/kg. The change in vivo at 100 mg/kg in data set [2] is -38%.
Turning to `O[C@@H]1[C@@H](O)[C@H](Oc2cccc(Cc3ccc(Cl)cc3)c2)OC[C@H]1O` [Example 75], the change in vivo at 100 mg/kg in data set [2] is -43%.
For the compound `CC(=O)O[C@@H]1[C@@H](OC(C)=O)[C@H](Oc2ccc(Cc3c(C)cc(C)cc3C)cc2)OC[C@H]1OC(C)=O` [Example 62], in the data set on mice, the “LD0 (maximum non-lethal dose)” value is greater than 900 mg/kg. In addition, in data set [2], the change in vivo at 100 mg/kg was -18%.
Consider `COc1ccc(Cc2ccc(O[C@@H]3OC[C@@H](O)[C@H](O)[C@H]3O)cc2)cc1` [Example 15], for which, in the data set on mice, the “LD0 (maximum non-lethal dose)” value is listed as greater than 800 mg/kg. In addition, the change in vivo at 100 mg/kg in data set [2] is -47%.
Take `C[C@@H]1O[C@@H](Oc2ccc(Cc3ccc([N+](=O)[O-])cc3)cc2)[C@H](O)[C@H](O)[C@H]1O` [Example 5]: the change in vivo at 100 mg/kg in data set [2] is -7%.
For the compound `Cc1cccc(Cc2ccc(O[C@@H]3OC[C@@H](O)[C@H](O)[C@H]3O)cc2)c1` [Example 13], the “LD0 (maximum non-lethal dose)” value in the data set on mice is no less than 800 mg/kg. Besides, in data set [2], the change in vivo at 100 mg/kg is -24%.
For `O=[N+]([O-])c1ccc(Cc2ccc(O[C@@H]3O[C@H](CO)[C@H](O)[C@H](O)[C@H]3O)cc2)cc1` [Example 4], the “LD0 (maximum non-lethal dose)” value with mice is reported as no less than 900 mg/kg. For the same compound, the change in vivo at 100 mg/kg in data set [2] was -33%.
Taken in the same sequence, the figures for `COc1cccc(Cc2ccc(O[C@@H]3OC[C@@H](O)[C@H](O)[C@H]3O)cc2)c1` [Example 17] were greater than 1000 mg/kg and -50%.
Taken in the same sequence, the figures for `Nc1cccc(Cc2ccc(O[C@@H]3OC[C@@H](O)[C@H](O)[C@H]3O)cc2)c1` [Example 23] were no less than 900 mg/kg and -28%.
As to `CS(=O)(=O)c1ccc(Cc2ccc(O[C@@H]3O[C@H](CO)[C@@H](O)[C@H](O)[C@H]3O)cc2)cc1` [Example 91, 4-(4-mesylbenzyl)phenyl β-D-glucopyranoside], the “LD0 (maximum non-lethal dose)” value in the data set with mice is listed as greater than 800 mg/kg. The change in vivo at 100 mg/kg in data set [2] was -40%.
For the compound `CSc1ccc(Cc2ccc(O[C@@H]3OC[C@@H](O)[C@H](O)[C@H]3O)cc2)cc1` [Example 85, 4-(4-methylthiobenzyl)phenyl β-D-xylopyranoside], the “LD0 (maximum non-lethal dose)” value in the data set on mice is greater than 800 mg/kg. In data set [2], the change in vivo at 100 mg/kg was -23%.
`O[C@@H]1[C@@H](O)[C@H](Oc2ccc(Cc3ccccc3Cl)cc2)OC[C@H]1O` [Example 7]: the “LD0 (maximum non-lethal dose)” value in the data set with mice was greater than 800 mg/kg. Moreover, the change in vivo at 100 mg/kg in data set [2] was -20%.
In the case of `O=[N+]([O-])c1ccc(Cc2ccc(O[C@@H]3O[C@H](CO)[C@@H](O)[C@H](O)[C@H]3O)cc2)cc1` [Example 71], the “LD0 (maximum non-lethal dose)” value with mice is given as no less than 900 mg/kg. Besides, in data set [2], the change in vivo at 65 mg/kg was -21%.
Turning to `O[C@@H]1[C@@H](O)[C@H](Oc2ccc(Cc3cccc(Cl)c3)cc2)OC[C@H]1O` [Example 8], the LD50 in data set [1] is no less than 800 mg/kg. Also, the change in vivo at 100 mg/kg in data set [2] was -37%.
On to `CN(C)c1ccc(Cc2ccc(O[C@@H]3OC[C@@H](O)[C@H](O)[C@H]3O)cc2)cc1` [Example 20], for which, in data set [2], the change in vivo at 100 mg/kg was -22%.
With `O[C@@H]1[C@@H](O)[C@H](Oc2ccc(Cc3ccc(C(F)(F)F)cc3)cc2)OC[C@H]1O` [Example 18], the LD50 in data set [1] is greater than 900 mg/kg. Further, in data set [2], the change in vivo at 100 mg/kg was -17%.
As to `O=[N+]([O-])c1cccc(Cc2ccc(O[C@@H]3OC[C@@H](O)[C@H](O)[C@H]3O)cc2)c1` [Example 2, 4-(3-nitrobenzyl)phenyl β-D-xylopyranoside], the “LD0 (maximum non-lethal dose)” value with mice is greater than 800 mg/kg. The change in vivo at 100 mg/kg in data set [2] is -27%.
For `Cc1ccc(Cc2ccc(O[C@@H]3OC[C@@H](O)[C@H](O)[C@H]3O)cc2)cc1` [Example 11], the “LD0 (maximum non-lethal dose)” value with mice is greater than 800 mg/kg. Also, in data set [2], the change in vivo at 100 mg/kg was -19%.
Regarding `O[C@@H]1[C@@H](O)[C@H](Oc2ccc(Cc3ccc(Br)cc3)cc2)OC[C@H]1O` [Example 10], the “LD0 (maximum non-lethal dose)” value in the data set with mice is given as no less than 900 mg/kg. Moreover, the change in vivo at 100 mg/kg in data set [2] was -39%.
For `O[C@@H]1[C@@H](O)[C@H](Oc2cccc(Cc3ccccc3)c2)OC[C@H]1O` [Example 77], the change in vivo at 100 mg/kg in data set [2] was -25%.
As to `CC(=O)N[C@H]1[C@H](Oc2ccc(Cc3ccc([N+](=O)[O-])cc3)cc2)O[C@H](CO)[C@@H](O)[C@@H]1O` [Example 3], the “LD0 (maximum non-lethal dose)” value in the data set on mice is recorded as greater than 800 mg/kg. The change in vivo at 100 mg/kg in data set [2] is -42%.
Taken in the same sequence, the figures for `Nc1ccc(Cc2ccc(O[C@@H]3OC[C@@H](O)[C@H](O)[C@H]3O)cc2)cc1` [Example 19] were greater than 800 mg/kg and -29%.
Taken in the same sequence, the figures for `O=[N+]([O-])c1ccc(Cc2ccc(O[C@@H]3OC[C@H](O)[C@H](O)[C@H]3O)cc2)cc1` [Example 6] were no less than 900 mg/kg and -29%.
Turning to `Cc1cc(C)c(Cc2ccc(O[C@@H]3OC[C@@H](O)[C@H](O)[C@H]3O)cc2)c(C)c1` [Example 27], in the data set with mice, the “LD0 (maximum non-lethal dose)” value was no less than 800 mg/kg. Besides, in data set [2], the change in vivo at 100 mg/kg was -13%.
In the case of `Oc1ccc(Cc2ccc(O[C@@H]3OC[C@@H](O)[C@H](O)[C@H]3O)cc2)cc1` [Example 29], in the data set on mice, the “LD0 (maximum non-lethal dose)” value was no less than 800 mg/kg. For the same compound, the change in vivo at 100 mg/kg in data set [2] was -37%.
As for `Cc1cc(Cc2ccc([N+](=O)[O-])cc2)cc(C)c1OC1OC[C@@H](O)[C@H](O)[C@H]1O` (stereo partly drawn) [Example 82], the “LD0 (maximum non-lethal dose)” value in the data set with mice is greater than 800 mg/kg.
With `Cc1ccccc1Cc1ccc(O[C@@H]2OC[C@@H](O)[C@H](O)[C@H]2O)cc1` [Example 12], in the data set with mice, the “LD0 (maximum non-lethal dose)” value is listed as greater than 800 mg/kg. For the same compound, the change in vivo at 100 mg/kg in data set [2] was -28%.
For the compound `CS(=O)(=O)c1ccc(Cc2ccc(O[C@@H]3OC[C@@H](O)[C@H](O)[C@H]3O)cc2)cc1` [Example 89, 4-(4-mesylbenzyl)phenyl β-D-xylopyranoside], the LD50 in data set [1] was 450 mg/kg. For the same compound, the change in vivo at 45 mg/kg in data set [2] (45 mg/kg p.o. at T=0 and T=+7 hours) is -30%.
For `O=[N+]([O-])c1cc(Cc2ccccc2)ccc1O[C@@H]1OC[C@@H](O)[C@H](O)[C@H]1O` [Example 34], the LD50 in data set [1] came to 250 mg/kg. For the same compound, in data set [2] (25 mg/kg p.o. at T=0 and T=+7 hours), the change in vivo at 25 mg/kg was -15%.
Consider `Cc1ccc(Cc2cc(C)c(OC3OC[C@@H](O)[C@H](O)[C@H]3O)c(C)c2)cc1` (stereo partly drawn) [Example 30], for which the LD50 in data set [1] turned out to be 630 mg/kg. For the same compound, in data set [2], the change in vivo at 100 mg/kg is -12%.
As to `CC(=O)N[C@H]1[C@H](Oc2ccc(Cc3ccc(S(C)(=O)=O)cc3)cc2)O[C@H](CO)[C@@H](O)[C@@H]1O` [Example 93, 4-(4-mesylbenzyl)phenyl β-D-N-acetylglucosaminopyranoside], the “LD0 (maximum non-lethal dose)” value in the data set with mice is listed as greater than 800 mg/kg. Further, the change in vivo at 100 mg/kg in data set [2] is -36%.
As to `O[C@@H]1[C@@H](O)[C@H](Oc2ccc(Cc3ccc(Cl)cc3)cc2)OC[C@H]1O` [Example 9, 4-(4-chlorobenzyl)phenyl β-D-xylopyranoside], the “LD0 (maximum non-lethal dose)” value with mice was greater than 800 mg/kg. Moreover, the change in vivo at 100 mg/kg in data set [2] is -37%.
